Species: Rattus norvegicus
Assay: DrugMatrix - Regimen: Daily Repeat
Format: toxicity, organism-based, Sprague-Dawley
Design: regimen Daily Repeat, gender Male, age 6-8 weeks
Conditions: in vivo, po, route oral GAVAGE, […]; for ABSOLUTE BASOPHIL / ABSOLUTE EOSINOPHIL / ABSOLUTE LYMPHOCYTE / ABSOLUTE MONOCYTE / ABSOLUTE SEGMENTED NEUTROPHIL / BASOPHIL / EOSINOPHIL / ERYTHROCYTE COUNT / HEMATOCRIT / HEMOGLOBIN / LEUKOCYTE COUNT / LYMPHOCYTE / MEAN CORPUSCULAR HEMOGLOBIN / MEAN CORPUSCULAR HEMOGLOBIN CONCENTRATION / MEAN CORPUSCULAR VOLUME / MONOCYTE / NEUTROPHIL / NUCLEATED RED BLOOD CELLS / PLATELET COUNT: tissue Blood; for ALANINE AMINOTRANSFERASE / ALBUMIN / ALKALINE PHOSPHATASE / ASPARTATE AMINOTRANSFERASE / BLOOD UREA NITROGEN / CARBON DIOXIDE / CHLORIDE / CHOLESTEROL / CREATINE PHOSPHOKINASE / CREATININE / GLUCOSE / LACTATE DEHYDROGENASE / LIPASE / PHOSPHORUS / POTASSIUM / SODIUM / TOTAL BILIRUBIN / TOTAL PROTEIN / URIC ACID: tissue Plasma
[1] = 79 mg/kg, 72 h, dose level Low, time 3 day
[2] = 79 mg/kg, 120 h, dose level Low, time 5 day
[3] = 2500 mg/kg, 72 h, dose level High, time 3 day
[4] = 2500 mg/kg, 120 h, dose level High, time 5 day

## COc1ccc2cc(CCC(C)=O)ccc2c1 [NABUMETONE]
[1]
  ABSOLUTE BASOPHIL: 0 CELLS/uL
  ABSOLUTE EOSINOPHIL: 0 CELLS/uL
  ABSOLUTE LYMPHOCYTE: 14572 CELLS/uL
  ABSOLUTE MONOCYTE: 0 CELLS/uL
  ABSOLUTE SEGMENTED NEUTROPHIL: 1228 CELLS/uL
  BASOPHIL: 0%
  EOSINOPHIL: 0%
  ERYTHROCYTE COUNT: 5.17 x10E6/uL
  HEMATOCRIT: 32.13%
  HEMOGLOBIN: 12.87 G/DL
  LEUKOCYTE COUNT: 15.8 x10E3/uL
  LYMPHOCYTE: 92.33%
  MEAN CORPUSCULAR HEMOGLOBIN: 24.87 pg
  MEAN CORPUSCULAR HEMOGLOBIN CONCENTRATION: 40.07 G/DL
  MEAN CORPUSCULAR VOLUME: 62.1 fL
  MONOCYTE: 0%
  NEUTROPHIL: 7.67%
  NUCLEATED RED BLOOD CELLS: 0 /100WBC
  PLATELET COUNT: 1308.67 x10E3/uL
  ALANINE AMINOTRANSFERASE: 72.33 u/L
  ALBUMIN: 4 G/DL
  ALKALINE PHOSPHATASE: 371 u/L
  ASPARTATE AMINOTRANSFERASE: 79.33 u/L
  BLOOD UREA NITROGEN: 15.67 mg/dL
  CARBON DIOXIDE: 31 mmol/L
  CHLORIDE: 103 MEQ/L
  CHOLESTEROL: 83.67 mg/dL
  CREATINE PHOSPHOKINASE: 226.33 u/L
  CREATININE: 0.12 mg/dL
  GLUCOSE: 150.67 mg/dL
  LACTATE DEHYDROGENASE: 93.33 u/L
  LIPASE: 10 u/L
  PHOSPHORUS: 12.3 mg/dL
  POTASSIUM: 6.52 MEQ/L
  SODIUM: 144.77 MEQ/L
  TOTAL BILIRUBIN: 0.13 mg/dL
  TOTAL PROTEIN: 5.33 G/DL
  URIC ACID: 1.73 mg/dL
[2]
  ABSOLUTE BASOPHIL: 0 CELLS/uL
  ABSOLUTE EOSINOPHIL: 33.67 CELLS/uL
  ABSOLUTE LYMPHOCYTE: 9495 CELLS/uL
  ABSOLUTE MONOCYTE: 148 CELLS/uL
  ABSOLUTE SEGMENTED NEUTROPHIL: 1090 CELLS/uL
  BASOPHIL: 0%
  EOSINOPHIL: 0.33%
  ERYTHROCYTE COUNT: 5.45 x10E6/uL
  HEMATOCRIT: 33.1%
  HEMOGLOBIN: 13.23 G/DL
  LEUKOCYTE COUNT: 10.77 x10E3/uL
  LYMPHOCYTE: 88.33%
  MEAN CORPUSCULAR HEMOGLOBIN: 24.3 pg
  MEAN CORPUSCULAR HEMOGLOBIN CONCENTRATION: 39.97 G/DL
  MEAN CORPUSCULAR VOLUME: 60.83 fL
  MONOCYTE: 1.33%
  NEUTROPHIL: 10%
  NUCLEATED RED BLOOD CELLS: 0 /100WBC
  PLATELET COUNT: 1115 x10E3/uL
  ALANINE AMINOTRANSFERASE: 69.33 u/L
  ALBUMIN: 4.1 G/DL
  ALKALINE PHOSPHATASE: 332 u/L
  ASPARTATE AMINOTRANSFERASE: 95.67 u/L
  BLOOD UREA NITROGEN: 12.33 mg/dL
  CARBON DIOXIDE: 33 mmol/L
  CHLORIDE: 103 MEQ/L
  CHOLESTEROL: 61.33 mg/dL
  CREATINE PHOSPHOKINASE: 321 u/L
  CREATININE: 0.15 mg/dL
  GLUCOSE: 173.33 mg/dL
  LACTATE DEHYDROGENASE: 214.67 u/L
  LIPASE: 9.67 u/L
  PHOSPHORUS: 11.03 mg/dL
  POTASSIUM: 5.83 MEQ/L
  SODIUM: 145.17 MEQ/L
  TOTAL BILIRUBIN: 0.13 mg/dL
  TOTAL PROTEIN: 5.53 G/DL
  URIC ACID: 1.13 mg/dL
[3]
  ABSOLUTE BASOPHIL: 0 CELLS/uL
  ABSOLUTE EOSINOPHIL: 0 CELLS/uL
  ABSOLUTE LYMPHOCYTE: 9646 CELLS/uL
  ABSOLUTE MONOCYTE: 275 CELLS/uL
  ABSOLUTE SEGMENTED NEUTROPHIL: 3829 CELLS/uL
  BASOPHIL: 0%
  EOSINOPHIL: 0%
  ERYTHROCYTE COUNT: 4.08 x10E6/uL
  HEMATOCRIT: 26.8%
  HEMOGLOBIN: 10.45 G/DL
  LEUKOCYTE COUNT: 13.75 x10E3/uL
  LYMPHOCYTE: 70%
  MEAN CORPUSCULAR HEMOGLOBIN: 25.55 pg
  MEAN CORPUSCULAR HEMOGLOBIN CONCENTRATION: 38.9 G/DL
  MEAN CORPUSCULAR VOLUME: 65.7 fL
  MONOCYTE: 2%
  NEUTROPHIL: 28%
  NUCLEATED RED BLOOD CELLS: 0 /100WBC
  PLATELET COUNT: 873.5 x10E3/uL
  ALANINE AMINOTRANSFERASE: 41 u/L
  ALBUMIN: 2.7 G/DL
  ALKALINE PHOSPHATASE: 286.5 u/L
  ASPARTATE AMINOTRANSFERASE: 125 u/L
  BLOOD UREA NITROGEN: 15.5 mg/dL
  CARBON DIOXIDE: 28.5 mmol/L
  CHLORIDE: 94 MEQ/L
  CHOLESTEROL: 75 mg/dL
  CREATINE PHOSPHOKINASE: 410 u/L
  CREATININE: 0.17 mg/dL
  GLUCOSE: 134 mg/dL
  LACTATE DEHYDROGENASE: 144 u/L
  LIPASE: 9 u/L
  PHOSPHORUS: 12 mg/dL
  POTASSIUM: 6.89 MEQ/L
  SODIUM: 136.5 MEQ/L
  TOTAL BILIRUBIN: 0.1 mg/dL
  TOTAL PROTEIN: 4.95 G/DL
  URIC ACID: 1.35 mg/dL
[4]
  ABSOLUTE BASOPHIL: 0 CELLS/uL
  ABSOLUTE EOSINOPHIL: 0 CELLS/uL
  ABSOLUTE LYMPHOCYTE: 3068 CELLS/uL
  ABSOLUTE MONOCYTE: 0 CELLS/uL
  ABSOLUTE SEGMENTED NEUTROPHIL: 8732 CELLS/uL
  BASOPHIL: 0%
  EOSINOPHIL: 0%
  ERYTHROCYTE COUNT: 2.58 x10E6/uL
  HEMATOCRIT: 15.9%
  HEMOGLOBIN: 6.6 G/DL
  LEUKOCYTE COUNT: 11.8 x10E3/uL
  LYMPHOCYTE: 26%
  MEAN CORPUSCULAR HEMOGLOBIN: 25.6 pg
  MEAN CORPUSCULAR HEMOGLOBIN CONCENTRATION: 41.5 G/DL
  MEAN CORPUSCULAR VOLUME: 61.8 fL
  MONOCYTE: 0%
  NEUTROPHIL: 74%
  NUCLEATED RED BLOOD CELLS: 0 /100WBC
  PLATELET COUNT: 1731 x10E3/uL
  ALANINE AMINOTRANSFERASE: 34 u/L
  ALBUMIN: 2.4 G/DL
  ALKALINE PHOSPHATASE: 326 u/L
  ASPARTATE AMINOTRANSFERASE: 66 u/L
  BLOOD UREA NITROGEN: 17 mg/dL
  CARBON DIOXIDE: 28 mmol/L
  CHLORIDE: 97 MEQ/L
  CHOLESTEROL: 55 mg/dL
  CREATINE PHOSPHOKINASE: 158 u/L
  CREATININE: 0.13 mg/dL
  GLUCOSE: 102 mg/dL
  LACTATE DEHYDROGENASE: 80 u/L
  LIPASE: 9 u/L
  PHOSPHORUS: 7.6 mg/dL
  POTASSIUM: 6.79 MEQ/L
  SODIUM: 138 MEQ/L
  TOTAL BILIRUBIN: 0.2 mg/dL
  TOTAL PROTEIN: 4.7 G/DL
  URIC ACID: 0.9 mg/dL
